In the NIST ThermoML archive (doi:10.1021/je501083d):
± gives the expanded uncertainty stated by the source.

Conditions: 288.2 K; 101.33 kPa; Liquid; Pycnometric method

With CCCCn1cc[n+](C)c1.F[B-](F)(F)F [1-butyl-3-methylimidazolium tetrafluoroborate] as the compound, how does the mass density read?
Its mass density is 1205.4 ± 2.5 kg/m3.

Which mass density does the source give for CCCCn1cc[n+](C)c1.F[P-](F)(F)(F)(F)F [1-butyl-3-methylimidazolium hexafluorophosphate] here?
The mass density was 1375.8 ± 2.8 kg/m3.

Which mass density does the source give for CCCC[n+]1ccn(C)c1.O=S(=O)([N-]S(=O)(=O)C(F)(F)F)C(F)(F)F here?
Its mass density is 1443.6 ± 6.1 kg/m3.

Same assay, conditions: 293.2 K; 101.33 kPa; Liquid; Pycnometric method

For CCCCn1cc[n+](C)c1.F[B-](F)(F)F [1-butyl-3-methylimidazolium tetrafluoroborate], which mass density is on record?
Its mass density is 1202.1 ± 2.5 kg/m3.

With CCCCn1cc[n+](C)c1.F[P-](F)(F)(F)(F)F [1-butyl-3-methylimidazolium hexafluorophosphate] as the compound, how does the mass density read?
Its mass density is 1371.5 ± 2.8 kg/m3.

For CCCC[n+]1ccn(C)c1.O=S(=O)([N-]S(=O)(=O)C(F)(F)F)C(F)(F)F, which mass density is on record?
The mass density was 1439.7 ± 6.1 kg/m3.

Same assay, conditions: 298.2 K; 101.33 kPa; Liquid; Pycnometric method

For CCCCn1cc[n+](C)c1.F[B-](F)(F)F [1-butyl-3-methylimidazolium tetrafluoroborate], which mass density is on record?
The mass density was 1199.4 ± 2.5 kg/m3.

With CCCCn1cc[n+](C)c1.F[P-](F)(F)(F)(F)F [1-butyl-3-methylimidazolium hexafluorophosphate] as the compound, how does the mass density read?
Its mass density is 1368.4 ± 2.8 kg/m3.

With CCCC[n+]1ccn(C)c1.O=S(=O)([N-]S(=O)(=O)C(F)(F)F)C(F)(F)F as the compound, how does the mass density read?
The mass density was 1435.6 ± 6 kg/m3.

Same assay, conditions: 303.2 K; 101.33 kPa; Liquid; Pycnometric method

Which mass density does the source give for CCCCn1cc[n+](C)c1.F[B-](F)(F)F [1-butyl-3-methylimidazolium tetrafluoroborate] here?
Its mass density is 1195.4 ± 2.5 kg/m3.

With CCCCn1cc[n+](C)c1.F[P-](F)(F)(F)(F)F [1-butyl-3-methylimidazolium hexafluorophosphate] as the compound, how does the mass density read?
Its mass density is 1363.5 ± 2.8 kg/m3.

Which mass density does the source give for CCCC[n+]1ccn(C)c1.O=S(=O)([N-]S(=O)(=O)C(F)(F)F)C(F)(F)F here?
Its mass density is 1431.3 ± 6 kg/m3.

Same assay, conditions: 308.2 K; 101.33 kPa; Liquid; Pycnometric method

Which mass density does the source give for CCCCn1cc[n+](C)c1.F[B-](F)(F)F [1-butyl-3-methylimidazolium tetrafluoroborate] here?
The mass density was 1191.7 ± 2.5 kg/m3.

With CCCCn1cc[n+](C)c1.F[P-](F)(F)(F)(F)F [1-butyl-3-methylimidazolium hexafluorophosphate] as the compound, how does the mass density read?
Its mass density is 1359.3 ± 2.8 kg/m3.

Which mass density does the source give for CCCC[n+]1ccn(C)c1.O=S(=O)([N-]S(=O)(=O)C(F)(F)F)C(F)(F)F here?
The mass density was 1426.8 ± 6 kg/m3.

Same assay, conditions: 313.2 K; 101.33 kPa; Liquid; Pycnometric method

With CCCCn1cc[n+](C)c1.F[B-](F)(F)F [1-butyl-3-methylimidazolium tetrafluoroborate] as the compound, how does the mass density read?
Its mass density is 1188 ± 2.5 kg/m3.

With CCCCn1cc[n+](C)c1.F[P-](F)(F)(F)(F)F [1-butyl-3-methylimidazolium hexafluorophosphate] as the compound, how does the mass density read?
The mass density was 1355 ± 2.8 kg/m3.

Which mass density does the source give for CCCC[n+]1ccn(C)c1.O=S(=O)([N-]S(=O)(=O)C(F)(F)F)C(F)(F)F here?
The mass density was 1421.9 ± 6 kg/m3.
